Test results reported in PubChem BioAssay AID1259407 (Chemical Carcinogenesis Research Information System (CCRIS), 2018).
Calls of active or inactive are those of the source. No rule for the calls is given here.

Test system: CCRIS mutagenicity, Ames/micronucleus/aberration tests
Assay: CCRIS mutagenicity studies
[1] = Test System: AMES SALMONELLA TYPHIMURIUM, Strain/Indicator: TA98, Metabolic Activation: NONE, Method: PREINCUBATION
[2] = Test System: AMES SALMONELLA TYPHIMURIUM, Strain/Indicator: TA100, Metabolic Activation: NONE, Method: PREINCUBATION
[3] = Test System: AMES SALMONELLA TYPHIMURIUM, Strain/Indicator: TA98, Metabolic Activation: NONE, Method: STANDARD PLATE
[4] = Test System: AMES SALMONELLA TYPHIMURIUM, Strain/Indicator: TA100, Metabolic Activation: NONE, Method: STANDARD PLATE
[5] = Test System: AMES SALMONELLA TYPHIMURIUM, Strain/Indicator: TA1535, Metabolic Activation: NONE, Method: STANDARD PLATE
[6] = Test System: AMES SALMONELLA TYPHIMURIUM, Strain/Indicator: TA1537, Metabolic Activation: NONE, Method: STANDARD PLATE
[7] = Test System: AMES SALMONELLA TYPHIMURIUM, Strain/Indicator: TA1538, Metabolic Activation: NONE, Method: STANDARD PLATE

Which mutagenic call (Test System: AMES SALMONELLA TYPHIMURIUM, Strain/Indicator: TA97, Metabolic Activation: HAMSTER, LIVER, S-9, AROCLOR 1254 (10 OR 30%), Method: PREINCUBATION) does the source give for COc1ccc(CCC(=O)c2c(O)cc(O[C@@H]3O[C@H](CO)[C@@H](O)[C@H](O)[C@H]3O[C@@H]3O[C@@H](C)[C@H](O)[C@@H](O)[C@H]3O)cc2O)cc1O here?
The mutagenic call was “inactive; negative”.

And the mutagenic call (Test System: AMES SALMONELLA TYPHIMURIUM, Strain/Indicator: TA97, Metabolic Activation: NONE, Method: PREINCUBATION)?
The mutagenic call was “inactive; negative”.

What about the mutagenic call (Test System: AMES SALMONELLA TYPHIMURIUM, Strain/Indicator: TA97, Metabolic Activation: RAT, LIVER, S-9, AROCLOR 1254 (10 OR 30%), Method: PREINCUBATION) of the same compound?
The mutagenic call was “inactive; negative”.

What about the mutagenic call (Test System: AMES SALMONELLA TYPHIMURIUM, Strain/Indicator: TA98, Metabolic Activation: HAMSTER, LIVER, S-9, AROCLOR 1254 (10 OR 30%), Method: PREINCUBATION) of the same compound?
The mutagenic call was “inactive; negative”.

What about the mutagenic call [1] of the same compound?
Its mutagenic call is “inactive; negative”.

What about the mutagenic call (Test System: AMES SALMONELLA TYPHIMURIUM, Strain/Indicator: TA98, Metabolic Activation: RAT, LIVER, S-9, AROCLOR 1254 (10 OR 30%), Method: PREINCUBATION) of the same compound?
Its mutagenic call is “inactive; negative”.

And the mutagenic call (Test System: AMES SALMONELLA TYPHIMURIUM, Strain/Indicator: TA100, Metabolic Activation: HAMSTER, LIVER, S-9, AROCLOR 1254 (10 OR 30%), Method: PREINCUBATION)?
The mutagenic call was “inactive; negative”.

What about the mutagenic call [2] of the same compound?
The mutagenic call was “inactive; negative”.

What about the mutagenic call (Test System: AMES SALMONELLA TYPHIMURIUM, Strain/Indicator: TA100, Metabolic Activation: RAT, LIVER, S-9, AROCLOR 1254 (10 OR 30%), Method: PREINCUBATION) of the same compound?
Its mutagenic call is “inactive; negative”.

What about the mutagenic call (Test System: AMES SALMONELLA TYPHIMURIUM, Strain/Indicator: TA1535, Metabolic Activation: HAMSTER, LIVER, S-9, AROCLOR 1254 (10 OR 30%), Method: PREINCUBATION) of the same compound?
The mutagenic call was “inactive; negative”.

And the mutagenic call (Test System: AMES SALMONELLA TYPHIMURIUM, Strain/Indicator: TA1535, Metabolic Activation: NONE, Method: PREINCUBATION)?
The mutagenic call was “inactive; negative”.

What about the mutagenic call (Test System: AMES SALMONELLA TYPHIMURIUM, Strain/Indicator: TA1535, Metabolic Activation: RAT, LIVER, S-9, AROCLOR 1254 (10 OR 30%), Method: PREINCUBATION) of the same compound?
Its mutagenic call is “inactive; negative”.

Which mutagenic call [1] does the source give for O=[N+]([O-])c1cccc(CBr)c1 here?
The mutagenic call was “inactive; negative”.

And the mutagenic call [2]?
The mutagenic call was “inactive; negative”.

And the mutagenic call (Test System: AMES SALMONELLA TYPHIMURIUM, Strain/Indicator: TA100, Metabolic Activation: RAT, LIVER, S-9, AROCLOR 1254, Method: PREINCUBATION)?
The mutagenic call was “inactive; negative”.

What does the source list for COc1c(O)c2c(c3cc(C(=O)N4CCc5c4c(O)c(OC)c4[nH]c(C(=O)N6C[C@H]7C[C@@]78C6=CC(=O)c6[nH]cc(C)c68)cc54)[nH]c13)CCN2C(N)=O?
mutagenic call [3]: inactive; negative; mutagenic call (Test System: AMES SALMONELLA TYPHIMURIUM, Strain/Indicator: TA98, Metabolic Activation: RAT, LIVER, S-9, AROCLOR 1254, Method: STANDARD PLATE): inactive; negative; mutagenic call [4]: inactive; negative; mutagenic call (Test System: CHINESE HAMSTER V-79, Strain/Indicator: V-79/6-THIOGUANINE, Metabolic Activation: NONE): active; positive

Which mutagenic call (Test System: AMES SALMONELLA TYPHIMURIUM, Strain/Indicator: TA97, Metabolic Activation: NONE, Method: VAPOR CHAMBER) does the source give for FC(Cl)C(F)(F)F (configuration not stated) here?
The mutagenic call was “inactive; negative”.

What about the mutagenic call (Test System: AMES SALMONELLA TYPHIMURIUM, Strain/Indicator: TA97, Metabolic Activation: RAT LIVER S-9, Method: VAPOR CHAMBER) of the same compound?
The mutagenic call was “inactive; negative”.

And the mutagenic call (Test System: AMES SALMONELLA TYPHIMURIUM, Strain/Indicator: TA98, Metabolic Activation: NONE, Method: VAPOR CHAMBER)?
The mutagenic call was “inactive; negative”.

And the mutagenic call (Test System: AMES SALMONELLA TYPHIMURIUM, Strain/Indicator: TA98, Metabolic Activation: RAT LIVER S-9, Method: VAPOR CHAMBER)?
Its mutagenic call is “inactive; negative”.

And the mutagenic call (Test System: AMES SALMONELLA TYPHIMURIUM, Strain/Indicator: TA100, Metabolic Activation: NONE, Method: VAPOR CHAMBER)?
Its mutagenic call is “inactive; negative”.

And the mutagenic call (Test System: AMES SALMONELLA TYPHIMURIUM, Strain/Indicator: TA100, Metabolic Activation: RAT LIVER S-9, Method: VAPOR CHAMBER)?
Its mutagenic call is “inactive; negative”.

What about the mutagenic call (Test System: AMES SALMONELLA TYPHIMURIUM, Strain/Indicator: TA1535, Metabolic Activation: NONE, Method: VAPOR CHAMBER) of the same compound?
Its mutagenic call is “inactive; negative”.

What about the mutagenic call (Test System: AMES SALMONELLA TYPHIMURIUM, Strain/Indicator: TA1535, Metabolic Activation: RAT LIVER S-9, Method: VAPOR CHAMBER) of the same compound?
The mutagenic call was “inactive; negative”.

For [Ag], which mutagenic call (End Point: In vivo micronucleus, Test System: Bone marrow polychromatic erythrocytes, Species: Rat, Strain/Sex: Sprague-Dawley/Male and Female, Route: Oral) is on record?
Its mutagenic call is “inactive; negative”.

For O=C(NC(Cc1cc(=O)[nH]c2ccccc12)C(=O)O)c1ccc(Cl)cc1 (configuration not stated), which mutagenic call [3] is on record?
The mutagenic call was “inactive; negative”.

What about the mutagenic call (Test System: AMES SALMONELLA TYPHIMURIUM, Strain/Indicator: TA98, Metabolic Activation: S-9, Method: STANDARD PLATE) of the same compound?
The mutagenic call was “inactive; negative”.

And the mutagenic call [4]?
Its mutagenic call is “inactive; negative”.

And the mutagenic call (Test System: AMES SALMONELLA TYPHIMURIUM, Strain/Indicator: TA100, Metabolic Activation: S-9, Method: STANDARD PLATE)?
Its mutagenic call is “inactive; negative”.

What about the mutagenic call [5] of the same compound?
The mutagenic call was “inactive; negative”.

What about the mutagenic call (Test System: AMES SALMONELLA TYPHIMURIUM, Strain/Indicator: TA1535, Metabolic Activation: S-9, Method: STANDARD PLATE) of the same compound?
The mutagenic call was “inactive; negative”.

What about the mutagenic call [6] of the same compound?
Its mutagenic call is “inactive; negative”.

And the mutagenic call (Test System: AMES SALMONELLA TYPHIMURIUM, Strain/Indicator: TA1537, Metabolic Activation: S-9, Method: STANDARD PLATE)?
Its mutagenic call is “inactive; negative”.

What about the mutagenic call [7] of the same compound?
The mutagenic call was “inactive; negative”.

And the mutagenic call (Test System: AMES SALMONELLA TYPHIMURIUM, Strain/Indicator: TA1538, Metabolic Activation: S-9, Method: STANDARD PLATE)?
Its mutagenic call is “inactive; negative”.

And the mutagenic call (Test System: E.COLI, Strain/Indicator: WP2 UVRA, Metabolic Activation: NONE, Method: STANDARD PLATE)?
The mutagenic call was “inactive; negative”.

And the mutagenic call (Test System: E.COLI, Strain/Indicator: WP2 UVRA, Metabolic Activation: S-9, Method: STANDARD PLATE)?
Its mutagenic call is “inactive; negative”.

For Cc1ccc2cc3c(c4c2c1CC4)C1OC1c1ccccc1-3 (configuration not stated), which mutagenic call [3] is on record?
Its mutagenic call is “active; positive”.

What about the mutagenic call [4] of the same compound?
Its mutagenic call is “active; positive”.

And the mutagenic call (Test System: CHINESE HAMSTER V-79, Strain/Indicator: V-79/8-AZAGUANINE, Metabolic Activation: NONE, Method: STANDARD PLATE)?
Its mutagenic call is “active; positive”.

With CCN(CC)C(=S)S as the compound, how does the mutagenic call (End Point: IN VITRO CHROMOSOMAL ABERRATIONS, Test System: CHO CELLS, Metabolic Activation: RAT, LIVER, S-9, AROCLOR 1254) read?
Its mutagenic call is “inactive; negative”.

What about the mutagenic call (End Point: IN VITRO CHROMOSOMAL ABERRATIONS, Test System: TK6 HUMAN LYMPHOBLASTS, Metabolic Activation: NONE) of the same compound?
Its mutagenic call is “active; positive (weak response)”.

And the mutagenic call (Test System: MOUSE LYMPHOMA, Strain/Indicator: L5178Y (TK+/TK-), Metabolic Activation: NONE, Method: SUSPENSION/PLATE)?
Its mutagenic call is “active; positive”.

What does the source list for OCCCCCl?
mutagenic call [1]: inactive; negative; mutagenic call [2]: active; positive; mutagenic call (Test System: AMES SALMONELLA TYPHIMURIUM, Strain/Indicator: TA100, Metabolic Activation: RAT, LIVER, S-9, KANECHLOR 500, Method: PREINCUBATION): active; positive

With ClCc1ccc2ccc3cc4ccccc4c4ccc1c2c34 as the compound, how does the mutagenic call [3] read?
The mutagenic call was “inactive; negative”.

And the mutagenic call [4]?
The mutagenic call was “inactive; negative”.

For Cc1c(-c2cnccn2)ssc1=S, which mutagenic call [3] is on record?
The mutagenic call was “inactive; negative”.

And the mutagenic call (Test System: AMES SALMONELLA TYPHIMURIUM, Strain/Indicator: TA98, Metabolic Activation: RAT, LIVER, S-9, AROCLOR 1254 OR PHENOBARBITOL, Method: STANDARD PLATE)?
The mutagenic call was “inactive; negative”.

And the mutagenic call [4]?
Its mutagenic call is “inactive; negative”.

What about the mutagenic call (Test System: AMES SALMONELLA TYPHIMURIUM, Strain/Indicator: TA100, Metabolic Activation: RAT, LIVER, S-9, AROCLOR 1254 OR PHENOBARBITOL, Method: STANDARD PLATE) of the same compound?
Its mutagenic call is “inactive; negative”.

And the mutagenic call [5]?
Its mutagenic call is “inactive; negative”.

What about the mutagenic call (Test System: AMES SALMONELLA TYPHIMURIUM, Strain/Indicator: TA1535, Metabolic Activation: RAT, LIVER, S-9, AROCLOR 1254 OR PHENOBARBITOL, Method: STANDARD PLATE) of the same compound?
The mutagenic call was “inactive; negative”.

And the mutagenic call [6]?
Its mutagenic call is “inactive; negative”.

And the mutagenic call (Test System: AMES SALMONELLA TYPHIMURIUM, Strain/Indicator: TA1537, Metabolic Activation: RAT, LIVER, S-9, AROCLOR 1254 OR PHENOBARBITOL, Method: STANDARD PLATE)?
Its mutagenic call is “inactive; negative”.

And the mutagenic call [7]?
The mutagenic call was “inactive; negative”.

What about the mutagenic call (Test System: AMES SALMONELLA TYPHIMURIUM, Strain/Indicator: TA1538, Metabolic Activation: RAT, LIVER, S-9, AROCLOR 1254 OR PHENOBARBITOL, Method: STANDARD PLATE) of the same compound?
The mutagenic call was “inactive; negative”.

Which mutagenic call [3] does the source give for O=[N+]([O-])c1ccc2cn[nH]c2c1 here?
The mutagenic call was “active; positive”.
